Read-outs that look alike come from different tables or passages of the source.
Tests used:
[1] = tested on: T-Rex 293 cell line SC3 cells having increased expression of androgen receptor protein due to exposure to doxycycline; assay: Cellular growth inhibition assay, T-Rex 293 SC3 cells with doxycycline (CellTiter-Glo, 72 hours); assay type: cell-based; conditions: T-Rex 293 SC3 cells with increased androgen receptor expression due to doxycycline (10 ng/mL)
Outline: (§1)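 Doxycycline (10 ng/mL) was either included or omitted to toggle wild-type androgen receptor expression in SC3 cells, a T-Rex 293 clone, grown in stripped-serum, phenol red-free medium. After 72 hours with compound, viable cells were quantified by CellTiter-Glo 2.0.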

[2] = tested on: T-Rex 293 cell line SC3 cells lacking increased expression of androgen receptor protein; assay: Cellular growth inhibition assay, T-Rex 293 SC3 cells without doxycycline (CellTiter-Glo, 72 hours); assay type: cell-based; conditions: T-Rex 293 cell line SC3 cells not exposed to doxycycline (lacking increased androgen receptor expression)
Outline: as §1

VCaP cells = assay: Cellular growth inhibition assay for VCaP cells (CellTiter-Glo, 72 hours); assay type: cell-based, human
Outline: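 Luminescent viability signal after 72 h of compound exposure gave GI50 values by four-parameter nonlinear regression. Compounds were added in 0.5% DMSO to cells plated 24 h earlier at 5000/well in DMEM containing 10% FBS.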

T47D cells = assay: Cellular growth inhibition assay for T47D cells (CellTiter-Glo, 72 hours); assay type: cell-based, human; conditions: 72 hours treatment
Outline: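 Luminescence from CellTiter-Glo 2.0 after 72 h of compound exposure gives the viability signal. Cells grew in insulin-supplemented (0.2 units/mL) DMEM with 10% FBS and were treated one day after seeding at 0.5% DMSO. GI50 values come from four-parameter nonlinear regression.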

Structure (SMILES)	GI50 (VCaP cells; Homo sapiens, VCaP, 72 h) [nM]	GI50 (T47D cells; Homo sapiens, T47D, 72 h) [nM]	GI50 (VCaP cells) [nM]	GI50 (T47D cells) [nM]	GI50 ([1]; 72 h) [nM]	GI50 ([2]; 72 h) [nM]	GI50 [1] [nM]	GI50 [2] [nM]
Cc1sc2c(c1C)C(c1ccc(N3CCC[C@H](C(=O)N4CCC[C@@H](c5ccc(C(=O)N[C@H]6CC[C@H](Oc7ccc(C#N)c(Cl)c7)CC6)nn5)C4)C3)cc1)=N[C@@H](Cc1ncco1)c1nnc(C)n1-2 [I-302]	500 to 1500	< 500			< 500	< 500		
Cc1sc2c(c1C)C(c1ccc(N3CCC[C@H](C(=O)N4CCC[C@H](c5ccc(C(=O)N[C@H]6CC[C@H](Oc7ccc(C#N)c(Cl)c7)CC6)nn5)C4)C3)cc1)=N[C@H](Cc1ncco1)c1nnc(C)n1-2 [I-303]	> 3000	> 3000			> 3000	> 3000		
Cc1sc2c(c1C)C(c1ccc(N3CCC[C@H](C(=O)N4CCC[C@@H](c5ccc(C(=O)N[C@H]6CC[C@H](Oc7ccc(C#N)c(Cl)c7)CC6)nn5)C4)C3)cc1)=N[C@H](Cc1ncco1)c1nnc(C)n1-2 [I-304]	> 3000	> 3000			> 3000	> 3000		
Cc1sc2c(c1C)C(c1ccc(CCCN(C)C(=O)c3ccc(C(=O)N[C@H]4CC[C@H](Oc5ccc(C#N)c(Cl)c5)CC4)nn3)cc1)=N[C@@H](Cc1ncco1)c1nnc(C)n1-2 [I-305]	< 500	< 500			< 500	< 500		
Cc1sc2c(c1C)C(c1ccc(C(=O)N3CCC(N(C)c4ccc(C(=O)N[C@H]5CC[C@H](Oc6ccc(C#N)c(Cl)c6)CC5)nn4)CC3)cc1)=N[C@@H](Cc1ncco1)c1nnc(C)n1-2 [I-306]	> 3000	1500 to 3000			> 3000	> 3000		
Cc1sc2c(c1C)C(c1ccc(C(=O)N3CCC(N(C)c4ccc(C(=O)N[C@H]5CC[C@H](Oc6ccc(C#N)c(Cl)c6)CC5)nn4)CC3)cc1)=N[C@H](Cc1ncco1)c1nnc(C)n1-2 [I-307]	1500 to 3000	1500 to 3000			< 500	500 to 1500		
Cc1sc2c(c1C)C(c1ccc(CCC[C@@H]3CCCN(c4ccc(C(=O)N[C@H]5CC[C@H](Oc6ccc(C#N)c(Cl)c6)CC5)nn4)C3)cc1)=N[C@@H](C)c1nnc(C)n1-2 [I-308]	< 500	500 to 1500			< 500	> 3000		
Cc1sc2c(c1C)C(c1ccc(OC[C@H]3C[C@@]4(CCCN(c5ccc(C(=O)N[C@H]6CC[C@H](Oc7ccc(C#N)c(Cl)c7)CC6)nn5)C4)C3)cc1)=N[C@@H](C)c1nnc(C)n1-2 [I-310]	< 500	500 to 1500			< 500	> 3000		
Cc1sc2c(c1C)C(c1ccc(C#CC3CC4(C3)CN(c3ccc(C(=O)N[C@H]5CC[C@H](Oc6ccc(C#N)c(Cl)c6)CC5)nn3)C4)cc1)=N[C@@H](C)c1nnc(C)n1-2 [I-311]	< 500	< 500			< 500	< 500		
Cc1sc2c(c1C)C(c1ccc(N(C)CC(=O)N3CCC(c4ccc(C(=O)N[C@H]5CC[C@H](Oc6ccc(C#N)c(Cl)c6)CC5)nn4)CC3)cc1)=N[C@@H](Cc1ncco1)c1nnc(C)n1-2 [I-312]	> 3000	> 3000			> 3000	> 3000		
Cc1sc2c(c1C)C(c1ccc(N(C)CC(=O)N3CCC(c4ccc(C(=O)N[C@H]5CC[C@H](Oc6ccc(C#N)c(Cl)c6)CC5)nn4)CC3)cc1)=N[C@H](Cc1ncco1)c1nnc(C)n1-2 [I-313]	< 500	500 to 1500			< 500	> 3000		
Cc1sc2c(c1C)C(c1ccc(C(=O)N3CCN(CCc4ccc(C(=O)N[C@H]5CC[C@H](Oc6ccc(C#N)c(Cl)c6)CC5)nn4)CC3)cc1)=N[C@H](Cc1ncco1)c1nnc(C)n1-2 [I-314]	500 to 1500	1500 to 3000			500 to 1500	> 3000		
Cc1sc2c(c1C)C(c1ccc(CN(C)C(=O)[C@@H]3CC[C@H](c4ccc(C(=O)N[C@H]5CC[C@H](Oc6ccc(C#N)c(Cl)c6)CC5)nn4)C3)cc1)=N[C@@H](Cc1ncco1)c1nnc(C)n1-2 [I-315]	< 500	500 to 1500			< 500	> 3000		
Cc1sc2c(c1C)C(c1ccc(CN(C)C(=O)[C@@H]3CC[C@@H](c4ccc(C(=O)N[C@H]5CC[C@H](Oc6ccc(C#N)c(Cl)c6)CC5)nn4)C3)cc1)=N[C@@H](Cc1ncco1)c1nnc(C)n1-2 [I-316]	< 500	1500 to 3000			< 500	> 3000		
Cc1sc2c(c1C)C(c1ccc(CC(=O)NCCc3ccc(C(=O)N[C@H]4CC[C@H](Oc5ccc(C#N)c(Cl)c5)CC4)nn3)cc1)=N[C@@H](Cc1ncco1)c1nnc(C)n1-2 [I-317]	< 500	< 500			< 500	500 to 1500		
Cc1sc2c(c1C)C(c1ccc(CN(C)C(=O)NCc3ccc(C(=O)N[C@H]4CC[C@H](Oc5ccc(C#N)c(Cl)c5)CC4)nn3)cc1)=N[C@@H](Cc1ncco1)c1nnc(C)n1-2 [I-318]	< 500	> 3000			< 500	> 3000		

Further lines, with some results ahead:

GI50 (VCaP cells; Homo sapiens, VCaP, 72 h) [nM]	GI50 (T47D cells; Homo sapiens, T47D, 72 h) [nM]	GI50 (VCaP cells) [nM]	GI50 (T47D cells) [nM]	Structure (SMILES)	GI50 ([1]; 72 h) [nM]	GI50 ([2]; 72 h) [nM]	GI50 [1] [nM]	GI50 [2] [nM]
< 500	< 500			Cc1sc2c(c1C)C(c1ccc(CC(=O)N3CCN(c4ccc(C(=O)N[C@H]5CC[C@H](Oc6ccc(C#N)c(Cl)c6)CC5)nn4)CC3)cc1)=N[C@@H](Cc1ncco1)c1nnc(C)n1-2 [I-319]	< 500	> 3000		
> 3000	> 3000			Cc1sc2c(c1C)C(c1ccc(C(=O)N(C)CCCc3ccc(C(=O)N[C@H]4CC[C@H](Oc5ccc(C#N)c(Cl)c5)CC4)nn3)cc1)=N[C@@H](Cc1ncco1)c1nnc(C)n1-2 [I-320]	> 3000	> 3000		
< 500	1500 to 3000			Cc1sc2c(c1C)C(c1ccc(C(=O)N(C)CCCc3ccc(C(=O)N[C@H]4CC[C@H](Oc5ccc(C#N)c(Cl)c5)CC4)nn3)cc1)=N[C@H](Cc1ncco1)c1nnc(C)n1-2 [I-321]	< 500	> 3000		
< 500	< 500			Cc1sc2c(c1C)C(c1ccc(C#CC3CC4(C3)CN(c3ccc(C(=O)N[C@H]5CC[C@H](Oc6ccc(C#N)c(Cl)c6)CC5)nn3)C4)nc1)=N[C@H](Cc1ncco1)c1nnc(C)n1-2 [I-322]	< 500	< 500		
< 500	500 to 1500			Cc1sc2c(c1C)C(c1ccc(CCC[C@H]3CCCN(c4ccc(C(=O)N[C@H]5CC[C@H](Oc6ccc(C#N)c(Cl)c6)CC5)nn4)C3)cc1)=N[C@@H](C)c1nnc(C)n1-2 [I-323]	< 500	500 to 1500		
> 3000	1500 to 3000			Cc1sc2c(c1C)C(c1ccc(CCO[C@@H]3CCCN(c4ccc(C(=O)N[C@H]5CC[C@H](Oc6ccc(C#N)c(Cl)c6)CC5)nn4)C3)cc1)=N[C@@H](C)c1nnc(C)n1-2 [I-324]	< 500	> 3000		
1500 to 3000	1500 to 3000			Cc1sc2c(c1C)C(c1ccc(CCO[C@H]3CCCN(c4ccc(C(=O)N[C@H]5CC[C@H](Oc6ccc(C#N)c(Cl)c6)CC5)nn4)C3)cc1)=N[C@@H](C)c1nnc(C)n1-2 [I-325]	< 500	> 3000		
		< 500	< 500	Cc1sc2c(c1C)C(c1ccc(CC[C@H]3C[C@@]4(CCCN(c5ccc(C(=O)N[C@H]6CC[C@H](Oc7ccc(C#N)c(Cl)c7)CC6)nn5)C4)C3)cc1)=N[C@@H](C)c1nnc(C)n1-2 [I-326]			< 500	> 3000
		> 3000	1500 to 3000	Cc1sc2c(c1C)C(c1ccc(CC[C@H]3C[C@]4(CCCN(c5ccc(C(=O)N[C@H]6CC[C@H](Oc7ccc(C#N)c(Cl)c7)CC6)nn5)C4)C3)cc1)=N[C@@H](C)c1nnc(C)n1-2 [I-327]			< 500	> 3000
< 500	500 to 1500			Cc1sc2c(c1C)C(c1ccc(OC[C@H]3CC[C@@]4(CCCN(c5ccc(C(=O)N[C@H]6CC[C@H](Oc7ccc(C#N)c(Cl)c7)CC6)nn5)C4)C3)nc1)=N[C@@H](Cc1ncco1)c1nnc(C)n1-2 [I-328]	< 500	< 500		
< 500	> 3000			Cc1sc2c(c1C)C(c1ccc(OC[C@H]3CC[C@]4(CCCN(c5ccc(C(=O)N[C@H]6CC[C@H](Oc7ccc(C#N)c(Cl)c7)CC6)nn5)C4)C3)nc1)=N[C@@H](Cc1ncco1)c1nnc(C)n1-2 [I-329]	< 500	> 3000		
< 500	> 3000			Cc1sc2c(c1C)C(c1ccc(OC[C@@H]3CC[C@@]4(CCCN(c5ccc(C(=O)N[C@H]6CC[C@H](Oc7ccc(C#N)c(Cl)c7)CC6)nn5)C4)C3)nc1)=N[C@@H](Cc1ncco1)c1nnc(C)n1-2 [I-330]	< 500	> 3000		
< 500	1500 to 3000			Cc1sc2c(c1C)C(c1ccc(CC(=O)N3CCC(c4ccc(C(=O)N[C@H]5CC[C@H](Oc6ccc(C#N)c(Cl)c6)CC5)nn4)CC3)cc1)=N[C@H](Cc1ncco1)c1nnc(C)n1-2 [I-331]	> 3000	> 3000		
> 3000	> 3000			Cc1sc2c(c1C)C(c1ccc(N(C)CC(=O)NCc3ccc(C(=O)N[C@H]4CC[C@H](Oc5ccc(C#N)c(Cl)c5)CC4)nn3)cc1)=N[C@@H](Cc1ncco1)c1nnc(C)n1-2 [I-332]	> 3000	> 3000		
